Test results as given in patent US5210193A, “Piperazine derivatives” (American Cyanamid Company, priority 1990, dated 1993).
In brackets after ≈: the same amount, converted by molar mass. Like-named read-outs stand apart in the source and are kept apart here.

Columns and labels:
Experiment in all cases: in vitro antibacterial MIC, agar plate dilution
Assay type in all cases: cell-based
[1] = tested on: Escherichia coli CMC 84-11; conditions: Escherichia coli, CMC8411, 18 h, 35° C., read-out: MIC
Procedure, shortened: (§1)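 Minimal inhibitory concentrations came from agar plate dilution in Mueller-Hinton medium. Each organism was delivered at roughly 10^4 CFU by Steers replicator. Plates were read for visible growth after 18 hours at 35° C, values in mcg/ml.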

[2] = tested on: Serratia marcescens IO 83-63; conditions: IO8363, 18 hours, 35° C.
Procedure, shortened: as §1

[3] = tested on: Morganella morganii CMC 84-37; conditions: Morganella morganii, CMC8437, 18 h, 35° C., read-out: MIC
Procedure, shortened: as §1

[4] = tested on: Streptococcus faecalis VGH 84-69; conditions: Enterococcus faecalis, VGH8469, 18 h, 35° C., read-out: MIC
Procedure, shortened: as §1

[5] = tested on: Streptococcus faecalis CMC 83-120; conditions: Enterococcus faecalis, CMC83120, 18 h, 35° C., read-out: MIC
Procedure, shortened: as §1

[6] = tested on: Staphylococcus aureus Smith; conditions: Staphylococcus aureus, 18 h, 35° C., read-out: MIC
Procedure, shortened: as §1

[7] = tested on: Escherichia coli ATCC 25922; conditions: 35° C.
Procedure, shortened: as §1

[8] = tested on: Klebsiella pneumoniae IO 83-5; conditions: Klebsiella pneumoniae, IO835, 18 h, 35° C., read-out: MIC
Procedure, shortened: as §1

Citrobacter div. K 82-24 = conditions: Citrobacter, DIV.K8224, 18 h, 35° C., read-out: MIC
Procedure, shortened: as §1

[9] = tested on: Pseudomonas aeruginosa VGH 84-3; conditions: Pseudomonas aeruginosa, VGH843, 18 h, 35° C., read-out: MIC
Procedure, shortened: as §1

[10] = tested on: Staphylococcus aureus VGH 84-45; conditions: Staphylococcus aureus, VGH8445, 18 h, 35° C., read-out: MIC
Procedure, shortened: as §1

[11] = tested on: Klebsiella pneumoniae MOR 84-24; conditions: Klebsiella pneumoniae, MOR8424, 18 h, 35° C., read-out: MIC
Procedure, shortened: as §1

[12] = tested on: Escherichia coli VGH 84-19; conditions: Escherichia coli, VGH8419, 18 h, 35° C., read-out: MIC
Procedure, shortened: as §1

[13] = tested on: Streptococcus faecalis UCI 85-19; conditions: Enterococcus faecalis, UCI8519, 18 h, 35° C., read-out: MIC
Procedure, shortened: as §1

[14] = tested on: Enterobacter cloacae VGH 84-39; conditions: Enterobacter cloacae, VGH8439, 18 h, 35° C., read-out: MIC
Procedure, shortened: as §1

[15] = tested on: Morganella morganii CMC 84-38; conditions: Morganella morganii, CMC8438, 18 h, 35° C., read-out: MIC
Procedure, shortened: as §1

[16] = tested on: Escherichia coli MOR 84-20; conditions: Escherichia coli, MOR8420, 18 h, 35° C., read-out: MIC
Procedure, shortened: as §1

[17] = tested on: Serratia marcescens CMC 83-74; conditions: Serratia marcescens, CMC8374, 18 h, 35° C., read-out: MIC
Procedure, shortened: as §1

[18] = tested on: Enterobacter cloacae MOR 84-30; conditions: Enterobacter cloacae, MOR8430, 18 h, 35° C., read-out: MIC
Procedure, shortened: as §1

[19] = tested on: Escherichia coli CMC 84-50; conditions: Escherichia coli, CMC8450, 18 h, 35° C., read-out: MIC
Procedure, shortened: as §1

[20] = tested on: Pseudomonas aeruginosa VGH 84-4; conditions: Pseudomonas aeruginosa, VGH844, 18 h, 35° C., read-out: MIC
Procedure, shortened: as §1

[21] = tested on: Enterobacter cloacae K 84-10; conditions: Enterobacter cloacae, K8410, 18 h, 35° C., read-out: MIC
Procedure, shortened: as §1

Escherichia coli LL 311 = conditions: Escherichia coli, LL311, 18 h, 35° C., read-out: MIC
Procedure, shortened: as §1

[22] = tested on: Staphylococcus aureus VGH 84-47; conditions: Staphylococcus aureus, VGH8447, 18 h, 35° C., read-out: MIC
Procedure, shortened: as §1

[23] = tested on: Proteus rettgeri CMC 84-41; conditions: Providencia rettgeri, CMC8441, 18 h, 35° C., read-out: MIC
Procedure, shortened: as §1

[24] = tested on: Serratia marcescens K 84-18; conditions: Serratia marcescens, K8418, 18 h, 35° C., read-out: MIC
Procedure, shortened: as §1

[25] = tested on: Morganella morganii MOR 84-45; conditions: Morganella morganii, MOR8445, 18 h, 35° C., read-out: MIC
Procedure, shortened: as §1

[26] = tested on: Streptococcus faecalis VGH 84-65; conditions: Enterococcus faecalis, VGH8465, 18 h, 35° C., read-out: MIC
Procedure, shortened: as §1

[27] = tested on: Pseudomonas aeruginosa K 84-16; conditions: Pseudomonas aeruginosa, K8416, 18 h, 35° C., read-out: MIC
Procedure, shortened: as §1

[28] = tested on: Staphylococcus aureus ATTC 29213; conditions: 35° C.
Procedure, shortened: as §1

[29] = tested on: Providencia stuarti CMC 83-3; conditions: Providencia, CMC833, 18 h, 35° C., read-out: MIC
Procedure, shortened: as §1

[30] = tested on: Proteus rettgeri IO 83-21; conditions: Providencia rettgeri, IO8321, 18 h, 35° C., read-out: MIC
Procedure, shortened: as §1

[31] = tested on: Staphylococcus aureus CMC 83-131; conditions: Staphylococcus aureus, CMC83131, 18 h, 35° C., read-out: MIC
Procedure, shortened: as §1

[32] = Escherichia coli, ATCC25922, 18 h, read-out: MIC
[33] = Staphylococcus aureus, ATTC29213, 18 h, read-out: MIC

MIC [1] [µg/mL]	MIC [4] [µg/mL]	MIC [5] [µg/mL]	MIC [6] [µg/mL]	MIC [7, 32] [µg/mL]	MIC [8] [µg/mL]	MIC (Citrobacter div. K 82-24) [µg/mL]	MIC [9] [µg/mL]	MIC [10] [µg/mL]	MIC [11] [µg/mL]	MIC [12] [µg/mL]	MIC [13] [µg/mL]	MIC [14] [µg/mL]	MIC [15] [µg/mL]	MIC [16] [µg/mL]	MIC [17] [µg/mL]	MIC [18] [µg/mL]	MIC [19] [µg/mL]	MIC [20] [µg/mL]	MIC [21] [µg/mL]	Compound	also measured
0.03 (≈ 0.0755 µM)	1 (≈ 2.52 µM)	1 (≈ 2.52 µM)	0.03 (≈ 0.0755 µM)	0.06 (≈ 0.151 µM)	0.25 (≈ 0.629 µM)	0.06 (≈ 0.151 µM)	16 (≈ 40.3 µM)	0.03 (≈ 0.0755 µM)	0.25 (≈ 0.629 µM)	0.06 (≈ 0.151 µM)	1 (≈ 2.52 µM)	0.12 (≈ 0.302 µM)	0.25 (≈ 0.629 µM)	0.06 (≈ 0.151 µM)	8 (≈ 20.1 µM)	1 (≈ 2.52 µM)	0.12 (≈ 0.302 µM)	2 (≈ 5.03 µM)	0.06 (≈ 0.151 µM)	O=C(O)c1cn(C2CC2)c2cc(N3CCNC(c4ccoc4)C3)c(F)cc2c1=O (centres unmarked) [Example 92]	MIC [2]: 1 µg/mL (≈ 2.52 µM); MIC [3]: 0.06 µg/mL (≈ 0.151 µM); MIC ([7]; 18 hours): 0.12 µg/mL (≈ 0.302 µM); MIC (Escherichia coli LL 311): 0.03 µg/mL (≈ 0.0755 µM); MIC [22]: 0.12 µg/mL (≈ 0.302 µM); MIC [23]: 0.12 µg/mL (≈ 0.302 µM); MIC [24]: 0.25 µg/mL (≈ 0.629 µM); MIC [25]: 0.12 µg/mL (≈ 0.302 µM); MIC [26]: 0.5 µg/mL (≈ 1.26 µM); MIC [27]: 4 µg/mL (≈ 10.1 µM); MIC ([28]; 18 hours): 0.12 µg/mL (≈ 0.302 µM); MIC [28, 33]: 0.06 µg/mL (≈ 0.151 µM); MIC [29]: 8 µg/mL (≈ 20.1 µM); MIC [30]: 0.5 µg/mL (≈ 1.26 µM)
2 (≈ 5.05 µM)	16 (≈ 40.4 µM)	> 16	0.5 (≈ 1.26 µM)	1 (≈ 2.52 µM)	8 (≈ 20.2 µM)	4 (≈ 10.1 µM)	> 16	0.5 (≈ 1.26 µM)	8 (≈ 20.2 µM)	2 (≈ 5.05 µM)	8 (≈ 20.2 µM)	4 (≈ 10.1 µM)	2 (≈ 5.05 µM)	2 (≈ 5.05 µM)	> 16	> 16	4 (≈ 10.1 µM)	64 (≈ 161 µM)	2 (≈ 5.05 µM)	CCn1cc(C(=O)O)c(=O)c2cc(F)c(N3CCNC(c4ccncc4)C3)cc21 (centres unmarked) [Example 123]	MIC [31]: 2 µg/mL (≈ 5.05 µM); MIC (Escherichia coli LL 311): 1 µg/mL (≈ 2.52 µM); MIC [22]: 2 µg/mL (≈ 5.05 µM); MIC [23]: 2 µg/mL (≈ 5.05 µM); MIC [24]: 8 µg/mL (≈ 20.2 µM); MIC [25]: 2 µg/mL (≈ 5.05 µM); MIC [26]: 8 µg/mL (≈ 20.2 µM); MIC [27]: > 16 µg/mL; MIC ([28]; 18 hours): 1 µg/mL (≈ 2.52 µM); MIC [28, 33]: 0.5 µg/mL (≈ 1.26 µM); MIC [29]: > 16 µg/mL; MIC [30]: 8 µg/mL (≈ 20.2 µM)
0.12 (≈ 0.311 µM)	2 (≈ 5.19 µM)	4 (≈ 10.4 µM)	0.12 (≈ 0.311 µM)	0.25 (≈ 0.649 µM)	1 (≈ 2.59 µM)	0.25 (≈ 0.649 µM)	> 16	0.12 (≈ 0.311 µM)	1 (≈ 2.59 µM)	0.25 (≈ 0.649 µM)	4 (≈ 10.4 µM)	0.5 (≈ 1.3 µM)	0.25 (≈ 0.649 µM)	0.25 (≈ 0.649 µM)	16 (≈ 41.5 µM)	4 (≈ 10.4 µM)	0.25 (≈ 0.649 µM)	4 (≈ 10.4 µM)	0.25 (≈ 0.649 µM)	CCn1cc(C(=O)O)c(=O)c2cc(F)c(N3CCNC(c4ccoc4)C3)cc21 (centres unmarked) [Example 94, 1-Ethyl-6-fluoro-1,4-dihydro-4-oxo-7-[3-(3-furanyl)-1-piperazinyl]-3-quinolinecarboxylic acid]	MIC [2]: 1 µg/mL (≈ 2.59 µM); MIC [3]: 0.12 µg/mL (≈ 0.311 µM); MIC ([7]; 18 hours): 0.5 µg/mL (≈ 1.3 µM); MIC (Escherichia coli LL 311): 0.12 µg/mL (≈ 0.311 µM); MIC [22]: 0.25 µg/mL (≈ 0.649 µM); MIC [23]: 0.25 µg/mL (≈ 0.649 µM); MIC [24]: 0.5 µg/mL (≈ 1.3 µM); MIC [25]: 0.12 µg/mL (≈ 0.311 µM); MIC [26]: 2 µg/mL (≈ 5.19 µM); MIC [27]: 16 µg/mL (≈ 41.5 µM); MIC [29]: 16 µg/mL (≈ 41.5 µM); MIC [30]: 1 µg/mL (≈ 2.59 µM)
